Results taken from ChEMBL document CHEMBL1141631, “Novel ketooxazole based inhibitors of fatty acid amide hydrolase (FAAH)” (Bioorg Med Chem Lett, 2008).
pIC50: −log10 of the molar value. Converted amounts (≈) assume the structure as drawn. The source made the active and inactive calls. The calls are words filed in the database; no cut-off is given here.

Columns and labels:
[1] = molecular target: T1, Fatty-acid amide hydrolase 1 (Homo sapiens, UniProt O00519); assay: Inhibition of human FAAH
T1 sequence (O00519 whole entry): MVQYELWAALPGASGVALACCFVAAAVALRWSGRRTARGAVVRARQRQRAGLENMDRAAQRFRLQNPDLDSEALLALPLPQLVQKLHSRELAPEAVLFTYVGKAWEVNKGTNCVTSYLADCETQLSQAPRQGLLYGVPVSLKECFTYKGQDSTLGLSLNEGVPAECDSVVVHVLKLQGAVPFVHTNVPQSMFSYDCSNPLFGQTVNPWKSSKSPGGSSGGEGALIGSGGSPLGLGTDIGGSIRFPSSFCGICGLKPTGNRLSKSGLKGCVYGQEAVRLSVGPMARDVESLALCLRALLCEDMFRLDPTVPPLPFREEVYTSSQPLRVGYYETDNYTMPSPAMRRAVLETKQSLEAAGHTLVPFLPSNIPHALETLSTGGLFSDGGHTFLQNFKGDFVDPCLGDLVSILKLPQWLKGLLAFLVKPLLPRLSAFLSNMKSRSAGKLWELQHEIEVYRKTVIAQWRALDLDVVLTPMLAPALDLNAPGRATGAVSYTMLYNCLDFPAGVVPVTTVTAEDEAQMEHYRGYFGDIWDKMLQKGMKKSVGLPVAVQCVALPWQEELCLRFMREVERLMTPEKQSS

Rattus norvegicus [2] = assay: Reversal of tactile allodynia in spinal nerve ligated rat model at 4 mg/kg, iv followed by infusion of 6 mg/kg/hr after 6 hrs; type: functional, organism-based
[3] = Aqueous solubility in water; type: physicochemical
[4] = Plasma concentration in spinal nerve ligated rat model at 4 mg/kg, iv followed by infusion of 6 mg/kg/hr after 6 hrs; type: ADME, organism-based
Rattus norvegicus [5] = species: Rattus norvegicus; assay: Reversal of tactile allodynia in spinal nerve ligated rat model; type: functional
Rattus norvegicus [6] = species: Rattus norvegicus; assay: Toxicity in spinal nerve ligated rat model assessed as motor impairment by rotarod test; type: organism-based; conditions: in vivo

Structure (SMILES) | pIC50 [1] | further results
O=C(CCCC1CCN(S(=O)(=O)c2ccccc2)CC1)c1ncco1 | 8.60 | 
CC(C)S(=O)(=O)N1CCC(CCCC(=O)c2ncco2)CC1 | 6.85 | 
O=C(CCCC1CCN(C(=O)CCc2ccccc2)CC1)c1ncco1 | 7.66 | 
O=C(CCCC1CCN(C(=O)OCc2ccccc2)CC1)c1ncco1 | 8.40 | 
COc1cccc(CN2CCC(CCCC(=O)c3ncco3)CC2)c1 | 7.47 | 
O=C(CCCC1CCN(C(=O)CCC2CCCCC2)CC1)c1ncco1 | 8.52 | 
O=C(CCCCCCc1ccccc1)c1ncc(-c2ccccn2)o1 |  | solubility [3]: 16 µg/mL (≈ 47.8 µM)

Further lines, with some results ahead:

pIC50 [1] | Structure (SMILES) | further results
8.44 | CC(C)c1ccc(CN2CCC(CCCC(=O)c3ncco3)CC2)cc1 | Activity (Rattus norvegicus [2]): Active; solubility [3]: > 400 µg/mL; concentration at 6 h [4]: 1200 nM; ED50 (Rattus norvegicus [5]): 7.3 mg/kg; Activity (Rattus norvegicus [6]): Non-toxic
7.37 | O=C(CCCCCCc1ccccc1)c1ncco1 | 
7.11 | O=C(CCCC1CCN(C(=O)c2ccccc2)CC1)c1ncco1 | 
6.89 | COc1ccc(CN2CCC(CCCC(=O)c3ncco3)CC2)cc1 | 
5.24 | O=C(CCCC1CCNCC1)c1ncco1 | 
8.70 | CC(C)(C)OC(=O)N1CCC(CCCC(=O)c2ncco2)CC1 | 
